Laboratory results taken from paper PMC5118696, “Identification of inhibitors that dually target the new permeability pathway and dihydroorotate dehydrogenase in the blood stage of Plasmodium falciparum” (Scientific Reports, 2016).
Where two headings read alike, the source gives them in different places.

What was measured:
[1] = system: Hyp1-NLuc Plasmodium falciparum-infected erythrocytes (new permeability pathway, NPP); test: microbe, parasite or virus in culture; details: Erythrocyte, 0.33 h, read-out: % of control remaining
[2] = system: Hyp1-NLuc Plasmodium falciparum-infected erythrocytes (new permeability pathway, NPP); test: microbe, parasite or virus in culture; details: Erythrocyte, 0.33 h, read-out: Mean RLU at 28 min (As % of DMSO control)

Structure (SMILES)	activity at 2 µM [1]	activity at 2 µM [2]
CCOc1ccc(-c2nonc2NC(=O)c2cccc(C)c2)cc1OCC [MMV665805]	107%	106%
CC(C)CNC(=O)c1c(N)n(CCc2ccccc2F)c2nc3ccccc3nc12 [MMV396744]	110%	108%
Cc1c(C)n(CC(O)CNC2CCCCC2C)c2ccccc12 (centres unmarked) [MMV665806]	108%	106%
CCOc1ccc(CN2CCN(CC(O)COc3ccc(OCC(O)CN4CCN(Cc5ccc(OCC)cc5)CC4)cc3)CC2)cc1 (centres unmarked) [MMV007092]	98.2%	105%
CCOC(=O)c1ccc2nc(-c3ccccc3)cc(O)c2c1 [MMV006457]	93.7%	104%
CCOc1cc2c(cc1OCC)C(c1cc(Cl)ccc1O)NCC2 (centres unmarked) [MMV000478]	95.3%	104%
CCCCNCC(O)(c1ccc(Cl)cc1)c1ccc(Cl)cc1 [MMV665929]	122%	107%
COc1ccccc1CNC(=O)C1c2ccccc2C(=O)N(CC(C)C)C1c1cccs1 (centres unmarked) [MMV000648]	105%	108%
Oc1ccc(-c2nc(-c3ccc4oc5ccc(-c6[nH]c(-c7ccc(O)cc7)nc6-c6ccccc6)cc5c4c3)c(-c3ccccc3)[nH]2)cc1 [MMV000753]	89.5%	88.1%
CC1CC2=C(CC1CNCCCN(C)C)C(C)(C)CCC2 (centres unmarked) [MMV665830]	104%	105%
CN(C)c1ccc(N2C(N)=NC(N)=NC2(C)C)cc1 [MMV667487]	98.1%	97%
CC(NCc1ccccc1)c1cc(Cl)ccc1O (centres unmarked) [MMV665789]	117%	107%
Cc1sc(NC(=O)c2ccco2)c(C(c2cccnc2)N2CCC(Cc3ccccc3)CC2)c1C (centres unmarked) [MMV396663]	92.5%	97%
Cc1ccc(-c2cc3nc4c(c(O)n3n2)CCCC4)cc1 [MMV006937]	58.4%	100%
Cc1ccc(Nc2nc(-c3ccccn3)cs2)cc1 [MMV007907]	103%	106%
CCCCCCn1c(=N)n(CC(O)COc2cccc(C)c2)c2ccccc21 (centres unmarked) [MMV000445]	93.8%	87.2%
CCCCCC(=O)N1c2ccccc2N=C2CC(c3ccc(OC)c(OC)c3)CC(O)=C2C1c1ccc(C(F)(F)F)cc1 (centres unmarked) [MMV085583]	102%	103%
Cc1cc(C)cc(Nc2cc(C)nc3nc(C(F)(F)F)nn23)c1 [MMV011259]	98.6%	101%
CC(=O)c1ccc(NC(=O)CSc2nc(-c3ccccc3Cl)ns2)cc1 [MMV666124]	69.6%	96.8%
CCOC(=O)c1cnc2c(CC)cccc2c1O [MMV498479]	107%	103%
CCCCCCC(O)(c1ccc(F)cc1)C(CN1CCOCC1)c1ccccc1 (centres unmarked) [MMV000621]	117%	106%
CCCc1c(C)nc2ccc(Br)cc2c1O [MMV666095]	113%	104%
O=C(NC1CCN(Cc2ccccc2)CC1)c1cc(-c2ccncc2)nc2ccc(Cl)cc12 [MMV020275]	115%	115%
COc1ccc(CCn2c(=N)c(C(=O)NCc3cccnc3)cc3c(=O)n4cccc(C)c4nc32)cc1 [MMV667488]	95.6%	105%
COCCNCC(O)Cn1c2ccc(Cl)cc2c2cc(Cl)ccc21 (centres unmarked) [MMV019017]	100%	105%
COc1cc(SC)ccc1C(=O)N1CCCC(C)C1 (centres unmarked) [MMV056726]	123%	122%

Structure (SMILES)	activity at 2 µM [1]	activity at 2 µM [2]
CCC(C)NCC(O)(c1ccc(Cl)cc1)c1ccc(Cl)cc1 (centres unmarked) [MMV665928]	121%	106%
c1ccc(C2=Nc3ccccc3N=C(c3ccccc3)c3ccccc32)cc1 [MMV007113]	111%	103%
COc1cccc(Nc2nc(NCCO)c3ccccc3n2)c1 [MMV011944]	101%	101%
Cc1ccc(Nc2nc(NCCO)c3ccccc3n2)cc1C [MMV001038]	102%	102%
CCOc1ccc(C=Cc2nc(=O)c3ccccc3o2)cc1 [MMV665940]	31.3%	61.5%
CC(C)(C)c1ccc(O)c(CNC2CCCCC2)c1 [MMV665785]	104%	103%
COc1ccc(CCN2C(=O)c3[nH]nc(-c4cc(Cl)c(C)cc4O)c3C2c2ccccc2F)cc1 (centres unmarked) [MMV396717]	80.3%	96.5%
CN(C)c1ccc(-c2nc3cc(N)ccc3[nH]2)cc1 [MMV666102]	90%	98.7%
Cc1cc(NC(=O)C2c3ccccc3C(=O)N(CC(C)C)C2c2cccs2)no1 (centres unmarked) [MMV006429]	98.1%	99.6%
Cc1ccccc1OCCSc1nc2ccc(NC(=O)c3cccs3)cc2s1 [MMV007396]	111%	104%
O=C(O)C1Cc2c([nH]c3ccccc23)C(c2ccc(Cl)cc2Cl)N1 (centres unmarked) [MMV008138]	102%	102%
CCOC(=O)c1cn(CC)c2cc(N(C)CCc3ccc(OC)c(OC)c3)c(F)cc2c1=O [MMV665977]	87.8%	106%
CCCc1c(CC)c(=N)c2ccccc2n1C [MMV008416]	100%	98.9%
O=C1C2=C(Nc3ccccc3SC2c2ccccc2)c2ccccc21 (centres unmarked) [MMV645672]	106%	106%
Cc1cc(Nc2ccc(C)c(Cl)c2)n2nc(C(F)(F)F)nc2n1 [MMV665874]	106%	107%
CC(=O)NCCc1nc2ccccc2n1Cc1ccc(C(C)C)cc1 [MMV007617]	82.1%	95.2%
COc1cccc(Cn2c(Oc3ccccc3)nc3c2c(=O)n(C)c(=O)n3C)c1 [MMV396705]	101%	102%
O=C(Nc1ccc(N2CCN(Cc3ccccc3)CC2)cc1)c1cccs1 [MMV019670]	112%	113%
O=C(Nc1cccc(C(F)(F)F)c1)c1cc(Cl)ccc1O [MMV665807]	105%	99%
Oc1c(C(Nc2ccccn2)c2cccc(Oc3ccccc3)c2)ccc2cccnc12 (centres unmarked) [MMV665814]	98.6%	98.8%
CN(C)CCNc1cc(-c2ccccc2)nc2ccccc12 [MMV006704]	92%	90.8%
O=C(Nc1ccsc1C(=O)NC1CCCCC1)c1ccc(F)cc1 [MMV665939]	115%	104%
CC(C)=CCN1CCC(C(=O)Nc2ccc(-c3nc4ccccc4[nH]3)cc2)CC1 [MMV665946]	121%	106%
CCCCc1c(C)nc2c(OC)cccc2c1O [MMV006820]	105%	106%
Cc1cc(Nc2cccc(F)c2)nc(NCc2ccccc2)n1 [MMV006319]	104%	102%
COc1ccc(N2CCN(C(CNC(=O)C3CCCCC3)c3ccc4c(c3)OCO4)CC2)cc1 (centres unmarked) [MMV019662]	114%	103%
